Source: patent US20210269504A1, “PROTEIN-BASED MICELLES FOR THE DELIVERY OF HYDROPHOBIC ACTIVE COMPOUNDS” (priority 2018, published 2021)

Test: Loading of 2Yx2A micelles with pyraclostrobin (A280 and HPLC quantification)
Format: physicochemical
Method: Pyraclostrobin is a highly water-insoluble organic compound that is also a potent fungicide. […] To determine if pyraclostrobin could be taken up into 2Yx2A micelles, pyraclostrobin was added until it saturated a solution of 100 μL of 11 μM (A280: 0.361) 2Yx2A, evidenced by yellow particulates. The solution was then centrifuged and the supernatant was removed and then placed in a fresh tube and centrifuged again. Supernatant removal and centrifugation were repeated 3 times to remove any insoluble pyraclostrobin that has not partitioned into the micelle interior. The solution was then measured with a nanodrop to determine its absorbance at 280 nm resulting in an A280 of 0.502 (+0.141 mAU). Given the pyrene extinction coefficient of 24,000 at A275, this increase in absorbance corresponds to the presence of 5.8 μM pyrene. Similarly, the same sample can be analyzed for pyraclostrobin content via HPLC using a calibration curved developed using known pyrene concentrations in acetonitrile (FIG. 18A). For HPLC analysis the protein-pyraclostrobin solution is diluted to ½ of its volume by pyrene to break apart the micelles. Then a known volume is injected onto the HPLC (FIG. 18B). Based on the area of the pyrene peak and volume injected the number of moles and thus the concentration of pyraclostrobin can be determined. Using this method, 7.37 μM pyraclostrobin is encapsulated in 11 μM of protein.
Instead of directly adding pyraclostrobin to a solution of 2Yx2A micelles an alternative method was used to achieve higher loading efficiency. This method involved the co-resuspension of lyophilized protein and pyraclostrobin in THF which is then slowly diluted with buffer. The solution was then centrifuged and the supernatant was removed and then placed in a fresh tube and centrifuged again. Supernatant removal and centrifugation were repeated 3 times to remove any insoluble pyraclostrobin that has not partitioned into the micelle interior. The sample was then lyophilized to remove all solvent and then resuspended in milliQ water. Although no visible precipitation was observed, the sample was centrifuged to remove any unincorporated pyraclostrobin. For HPLC analysis the protein-pyraclostrobin solution is diluted to ½ of its volume by pyrene to break apart the micelles. Then a known volume is injected onto the HPLC. Based on the area of the pyrene peak and volume injected the number of moles and thus the concentration of pyraclostrobin can be determined.

SMILES | Concentration encapsulated in micelles (HPLC) (direct addition to 11 μM 2Yx2A) [µM] | Amount injected on the HPLC (resuspended in water, without 2Yx2A) [nmol] | Amount injected on the HPLC (resuspended with 2Yx2A (THF co-resuspension, 100 mM PB pH 5.7)) [nmol] | Concentration present from increase in A280 (direct addition to 11 μM 2Yx2A, +0.141 absorbance, extinction coefficient 24,000) [µM]
COC(=O)N(OC)c1ccccc1COc1ccn(-c2ccc(Cl)cc2)n1 [pyraclostrobin] | 7.37 | 0.03 | 0.63 | 
c1cc2ccc3cccc4ccc(c1)c2c34 [pyrene] |  |  |  | 5.8
